From ChEMBL document CHEMBL1201862, “PubChem BioAssay data set” (2004)
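These data come from cells grown in 96-well plates and exposed to compound for 48 hours at five concentrations. Here, GI50 denotes the concentration required for 50% inhibition of growth.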 Active and inactive are the calls of the source. Cut-off read from the data, not from the text of the source: active = GI50 up to about 1.1 µM and inactive = higher.

Assays:
Test in all cases: NCI tumour cell line growth inhibition, 48 h
[1] = system: 786-0
[2] = system: ACHN
[3] = system: CAKI-1
[4] = system: CCRF-CEM
[5] = system: COLO 205
[6] = system: HL-60
[7] = system: HT-29
[8] = system: MCF7
[9] = system: MOLT-4
[10] = system: NCI-H460
[11] = system: NCI-H522
[12] = system: NCI/ADR-RES
[13] = system: OVCAR-5
[14] = system: OVCAR-8
[15] = system: RXF 393
[16] = system: SF-268
[17] = system: SF-295
[18] = system: SK-MEL-28
[19] = system: SW-620
[20] = system: UACC-257

SMILES | GI50 [1] | GI50 [2] | GI50 [3] | GI50 [4] | GI50 [5] | GI50 [6] | GI50 [7] | GI50 [8] | GI50 [9] | GI50 [10] | GI50 [11] | GI50 [12] | GI50 [13] | GI50 [14] | GI50 [15] | GI50 [16] | GI50 [17] | GI50 [18] | GI50 [19] | GI50 [20]
C=C1C(=O)OC2CC1C(OC(=O)/C=C/c1ccccc1)C/C(C)=C/CC/C(C)=C/CCC2(C)O (stereo not given) | 1.31 µM (inactive) | 1.61 µM (inactive) | 1.46 µM (inactive) | 0.372 µM (active) | 3.41 µM (inactive) | 0.308 µM (active) | 1.33 µM (inactive) | 0.714 µM (active) | 0.409 µM (active) | 1.36 µM (inactive) | 0.692 µM (active) | 1.74 µM (inactive) | 1.75 µM (inactive) | 1.75 µM (inactive) | 1.34 µM (inactive) | 1.68 µM (inactive) | 1.56 µM (inactive) | 2.3 µM (inactive) | 1.04 µM (active) | 1.87 µM (inactive)
Clc1cc(OC2C3CC4CC(C3)CC2C4)nc(Cl)n1 (stereo not given) | 16.8 µM (inactive) | 17.7 µM (inactive) | 0.723 µM (active) | 16.7 µM (inactive) | 18.6 µM (inactive) | 3.08 µM (inactive) | 15.4 µM (inactive) | 18.3 µM (inactive) | 16.9 µM (inactive) | 17.7 µM (inactive) | 12.4 µM (inactive) | 31.7 µM (inactive) | 21.3 µM (inactive) | 26.1 µM (inactive) | 12.8 µM (inactive) | 19.2 µM (inactive) | 18 µM (inactive) | 15 µM (inactive) | 13.9 µM (inactive) | 13.9 µM (inactive)
COC(=O)C1C(=O)C(C(=O)OC)C2CCC1N2C (stereo not given) | 33.7 µM (inactive) | 41 µM (inactive) | 92.5 µM (inactive) | 15.8 µM (inactive) | > 100 µM (inactive) | 19.9 µM (inactive) | 35 µM (inactive) | 33.6 µM (inactive) | 9.08 µM (inactive) | 48.3 µM (inactive) | > 100 µM (inactive) | 48.6 µM (inactive) | > 100 µM (inactive) | 27.9 µM (inactive) | 24.9 µM (inactive) | 96.6 µM (inactive) | > 100 µM (inactive) | 34.4 µM (inactive) | 36.5 µM (inactive) | 83.4 µM (inactive)
CN(C)c1ccc(/C=C2\N=C(NN)NC2=O)cc1 | 75.2 µM (inactive) | > 100 µM (inactive) | > 100 µM (inactive) | 65.8 µM (inactive) | > 100 µM (inactive) | 26.7 µM (inactive) | 31.3 µM (inactive) | 54.8 µM (inactive) | 8.85 µM (inactive) | 69.8 µM (inactive) | 46.1 µM (inactive) | 82.2 µM (inactive) | > 100 µM (inactive) | 55 µM (inactive) | 63.5 µM (inactive) | > 100 µM (inactive) | > 100 µM (inactive) | > 100 µM (inactive) | 98.2 µM (inactive) | > 100 µM (inactive)
